In this assay the target is T1, WEE1 kinase (Homo sapiens, UniProt P30291).
T1 construct: purchased CarnaBiosciences, Inc. 05-177
Description: Inhibitory effect of compound on WEE1 kinase in vitro (ELISA). The class given is biochemical. The settings on record: ATP concentration of Km. On the procedure:
The tested compounds were screened on WEE1 kinase with ATP concentration of Km by ELISA. Compounds were screened on WEE1 kinase to evaluate the kinase inhibitory activity of the tested compounds. In the detection process, the initial concentration of the tested compounds was all selected as 100 nM, and each compound was selected with 6 gradient dilution concentrations, the gradient dilution ratio was 4-fold, and two replicate wells were detected for each concentration, MK1775 was used as the standard control.
WEE1, purchased from CarnaBiosciences, Inc., Item No. 05-177; dimethyl sulfoxide, purchased from Sigma-Aldrich, Item No. D8418; ATP, purchased from Sigma-Aldrich, Item No. A7699; DTT solution, purchased from Sigma-Aldrich, Item No. 43816; protein tyrosine kinase (PTK) substrate (poly-Glu-Tyr), purchased from Sigma-Aldrich, Item No. P4476; P-Tyr (PY99), purchased from Santa Cruz, Item No. sc-7020; Anti-mouse IgG HRP-linked Antibody, purchased from Santa Cruz, Item No. 7076S; TMB liquid Substrate System, purchased from Sigma-Aldrich, Item No. T0440; Costar Stripwell Microplate No Lid 1×8 Flat Bottom, Certified High Binding, purchased from Sigma-Aldrich, Item No. 42592; 96-well compound plate, purchased from Thermo Scientific, Item No. 267245.
• 1. Coating substrate: 1) An appropriate volume of substrate storage solution protein tyrosine kinase (PTK) substrate (poly-Glu-Tyr) was taken, diluted 10 times with PBS, and the concentration was diluted from […]. The mixture was added to a high adsorption 96-well plate at 125 μL per well. The plate was placed in an incubator at 37° C. for overnight coating. 2) After 24 hours, the 96-well plate was taken out, the liquid in the 96-well plate was poured out, cleaned with washing buffer for 3 times, and the incubator at 37° C. was inverted and dried for 2 hours. • 2. Compound preparation and transfer: 1) compound dilution: 10 mM of the test compound storage solution was taken, the compound in 96-well compound plate was diluted with DMSO in multiple steps to obtain the initial concentration of 100× compound as the first concentration, and then DMSO was used for 4-fold gradient dilution, for a total of 6 concentrations; after that, 2 μL of the gradient dilution solution was added to 48 μL of 1× reaction buffer respectively to prepare 4× compound; 2) 4× compounds were transferred: 10 μL of 4× compounds from the 96-well compound plate configured in the previous step were transferred into the dried high adsorption 96-well plate; 10 μL of the following liquids were added to the compound-free control wells and ATP-control wells: 2 μL of DMSO was added to 48 μL of 1× reaction buffer. • 3. Enzyme reaction stage: 1) WEE1 kinase and ATP were prepared into 2× enzyme solution and 4×ATP solution respectively with 1× reaction buffer. In this screening, the final concentration of WEE1 kinase was: 0.15 ng/μL and the final concentration of ATP was: […]; 2) 20 μL of enzyme solution of 2 was added to the high adsorption 96-well plate; 3) 10 μL of 4×ATP solution was added to the high adsorption 96-well plate and 10 μL of 1× reaction buffer was added to the ATP-control group; 4) the plate was placed in HERAEUS Multifuge X1R centrifuge at 2000 rpm for 20 s and then placed at room temperature and reacted for 60 min. • 4. Reaction termination stage: 1) the reaction mixture in the plate was poured out, 200 μL of washing buffer was added to each well, and washed for 5 times; the primary antibody P-Tyr (PY99) (dilution ratio 1:2000) was added, 100 μL per well, at room temperature for 30 min. 2) The primary antibody in the plate was poured out, 200 μL of washing buffer was added to each well, and washed for 5 times; the second antibody Anti-mouse IgG HRP-linked Antibody (dilution ratio 1:2000) was added, 100 μL per well, at room temperature for 30 min.
Background: In an ELISA, binding on a coated surface is turned into a signal by an enzyme label.

Results on one compound are retold here after patent US12612408B2, “Pyrazolone-fused pyrimidine compound, preparation method for same and applications thereof” (SHANGHAI PHARMACEUTICALS HOLDING CO., LTD., priority 2019, dated 2026).

SMILES strings stand for the structures.

T1 sequence (P30291 whole entry): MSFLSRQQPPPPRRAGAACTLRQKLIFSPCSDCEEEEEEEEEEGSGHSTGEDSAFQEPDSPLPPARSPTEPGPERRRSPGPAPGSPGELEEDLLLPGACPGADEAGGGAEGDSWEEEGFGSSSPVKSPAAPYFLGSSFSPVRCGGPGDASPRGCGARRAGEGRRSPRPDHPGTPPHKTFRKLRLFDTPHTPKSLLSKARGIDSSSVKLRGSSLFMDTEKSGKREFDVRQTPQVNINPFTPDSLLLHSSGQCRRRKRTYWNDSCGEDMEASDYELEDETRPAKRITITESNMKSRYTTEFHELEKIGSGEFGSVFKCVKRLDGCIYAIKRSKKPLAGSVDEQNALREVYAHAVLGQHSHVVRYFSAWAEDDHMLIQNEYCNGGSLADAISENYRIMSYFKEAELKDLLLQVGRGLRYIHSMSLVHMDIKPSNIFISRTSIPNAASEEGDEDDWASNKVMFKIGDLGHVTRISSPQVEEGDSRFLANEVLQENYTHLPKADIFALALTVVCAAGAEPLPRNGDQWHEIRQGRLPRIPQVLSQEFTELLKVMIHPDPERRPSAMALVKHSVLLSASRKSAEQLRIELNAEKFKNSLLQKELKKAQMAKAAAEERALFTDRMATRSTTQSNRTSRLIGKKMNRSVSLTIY

The IC50 is the concentration that gives 50% inhibition. Higher therefore signals weaker potency. Compound `C=CCn1c(=O)c2cnc(Nc3ccc(C4CCC(N5CCC5)CC4)cc3)nc2n1-c1cccc(C(C)(C)O)n1` (single isomer, unassigned) [Compound I-8-1] showed an IC50 of 1.52 nM. In other words, the single-digit nanomolar range.
